Source: ChEMBL document CHEMBL5365447, “Pronucleotides of 2',3'-Dideoxy-2',3'-Didehydrothymidine as Potent Anti-HIV Compounds” (J Med Chem, 2023)

What was measured:
[1] = Prodrug conversion in human CEM/0 cell extract assessed as ((2S,5R)-5-(5-methyl-2,4-dioxo-3,4-dihydropyrimidin-1(2H)-yl)-2,5-dihydrofuran-2-yl)methyl tri-hydrogen diphosphate formation by HPLC analysis; format: ADME; conditions: ccrf-cem
[2] = Cytotoxicity against human CEM cells assessed as reduction in cell viability incubated for 4 to 5 days by light microscopic analysis; format: toxicity, cell-based; conditions: CEM cells (CCRF-CEM), time 4-5 day
[3] = Retention time of the compound by HPLC analysis; format: physicochemical
[4] = Selectivity index, ratio of CC50 for human CEM cells to EC50 for HIV-2 ROD infected in thymidine kinase-deficient human CEM cells; format: toxicity; conditions: read-out: Ratio CC50/EC50
[5] = Prodrug conversion in human CEM/0 cell extract assessed as metabolite formation by measuring half life by HPLC analysis; format: ADME; conditions: ccrf-cem
[6] = Prodrug conversion in pH 7.3 phosphate buffer assessed as ((2S,5R)-5-(5-methyl-2,4-dioxo-3,4-dihydropyrimidin-1(2H)-yl)-2,5-dihydrofuran-2-yl)methyl tri-hydrogen diphosphate formation by measuring half life in presence of pig liver esterase by HPLC analysis; format: ADME
[7] = test system: Human immunodeficiency virus 2; assay: Antiviral activity against HIV-2 ROD infected in wild-type human CEM/0 cells assessed as inhibition of virus-induced cytopathic effect incubated for 4 to 5 days by light microscopic analysis; format: functional, organism-based; conditions: Human immunodeficiency virus 2, ROD, CCRF-CEM
[8] = test system: Human immunodeficiency virus 1; assay: Antiviral activity against HIV-1 HE infected in wild-type human CEM/0 cells assessed as inhibition of virus-induced cytopathic effect incubated for 4 to 5 days by light microscopic analysis; format: functional, organism-based; conditions: Human immunodeficiency virus 1, HE, CCRF-CEM
[9] = Chemical stability of the compound in phosphate buffer saline assessed as half life at pH 7.3 by HPLC analysis; format: physicochemical; conditions: phosphate buffered saline
[10] = test system: Human immunodeficiency virus 2; assay: Antiviral activity against HIV-2 ROD infected in thymidine kinase-deficient human CEM cells assessed as inhibition of virus-induced cytopathic effect incubated for 4 to 5 days by light microscopic analysis; format: functional, organism-based; conditions: Human immunodeficiency virus 2, ROD, CCRF-CEM

Row | SMILES | Drug metabolism [1] | CC50 [2] [µM] | Retention_time [3] [min] | selectivity ratio [4] | t1/2 [5] [h] | t1/2 [6] [h] | EC50 [7] [µM] | EC50 [8] [µM] | half-life [9] [days] | EC50 [10] [µM]
1 | CCCCCCCCCCCCP(=O)(O)OP(=O)(O)OC[C@@H]1C=C[C@H](n2cc(C)c(=O)[nH]c2=O)O1.N.N | Metabolite_Notdetected | > 100 | 12.3 | > 8 | > 30 | > 150 | 0.2 | 0.87 | > 83.3 | 12.6
2 | Cc1cn([C@H]2C=C[C@@H](CO)O2)c(=O)[nH]c1=O [STAVUDINE] |  | > 50 |  | > 1 |  |  |  |  |  | > 50
